# Laboratory results taken from US20260226101A1, “PEPTIDE WITH ANTI-INFLAMMATORY AND ANTI-MICROBIAL ACTIVITY” (priority 2023, published 2026).
# Ends that are not written are not given here.
# Legend:
# [1] = test system: LPS-induced phosphorylation of ERK1/2 and p38 MAPK; experiment: Western blot of MAPK pathway in LPS-stimulated RAW 264.7 cells; type: cell-based, murine
# Experimental: As previously described, RAW264.7 cells were cultured and treated with LPS and synthetic peptides. After 18 h, cells were washed with PBS and lysed by incubating with RIPA lysis buffer cocktail (RIPA Lysis buffer, PMSF (1 mM), Protease inhibitor (1 μg/mL), phosphatase inhibitor (1 mM)) at […] for 30 minutes. Post incubation, cell lysate was collected by scraping cells and centrifuged at 12000 rpm for 15 min.
# The protein concentration was determined using the Bicinchoninic acid kit method with bovine serum albumin as the standard (provided in the kit), according to the manufacturer's instructions. Protein bands were electrophoretically transferred to a polyvinylidene difluoride (PVDF) membrane via semi-dry transfer blotting, Membranes were blocked with 5% BSA in PBST (1% Tween 20 in PBS) at 20-24° C. for 1 h, then incubated with primary antibodies against IL-10, TLR 4, VEGF, P38 p-p38, ERK and p-ERK, the dilutions are listed in table 3., at 4° C. overnight. GAPDH was used as a protein-loading control. The membrane was washed 3 times (10 min. each) with Tris-buffered saline/Tween 20 (TBST) and then treated with horseradish peroxidase (HRP)-conjugated secondary antibody (1:10000) for 1 h. The membrane was washed again with TBST. The membrane-binding antibodies were visualized later with the ECL detection reagent and images were acquired in a Fusion SL Imaging System. Band density was analyzed by densitometry using Image J software.
# [2] = test system: LPS-stimulated RAW 264.7 cells; experiment: RT-qPCR of cytokine mRNA in LPS-stimulated RAW 264.7 cells; type: cell-based, murine; settings: vs LPS control
# Experimental: Total cellular RNA was isolated using the RNA isoplus reagent (Takara Bioscience, India) following the manufacturer's instructions. RNA was quantified spectrophotometrically by absorption measurements at 260 and 280 nm using the nano drop system.
# As per table 8, RNA and the reaction mixture were mixed in PCR a tube and incubated in a thermal cycler for 5 min at 65° C. in and then cooled immediately on ice. Further, in the same tube, the step 2 reaction mixture was added and further incubated in the thermal cycler as mentioned below.
# Primers were designed using the Primer3 online tool. GAPDH was used as a normalizing control. The sequence of primers used is provided in below table 10. Real-Time PCR was performed according to the manufacturer's protocol using Takara biosystem's real-time PCR mix (Takara, Bio-India) with ROX as a passive reference dye using applied Biosystem's step-one Real-Time PCR system. The following PCR program was used for all real-time PCR-based experiments: initial denaturation at 95° C. for 2 minutes, followed by 40 cycles of denaturation at 95° C. for 15 seconds, annealing at 60° C. for 30 seconds, extension at 60° C. for 15 seconds.
# For quantification of gene expression, CT values of each gene were normalized to GAPDH and calibrated to the appropriate control sample using the SYBR Green-based comparative CT method (2-ΔΔCt). Fold change was calculated using the formula 2-ΔΔct.
# [3] = test system: Klebsiella pneumoniae ATCC 700603; experiment: Time-kill assay; type: cell-based; settings: K. pneumoniae
# Experimental: The survival of bacteria, time kill efficacy assay of IS 111 was further evaluated for activity against bacterial strain mentioned above according to CLSI reference method, with slightly modification. MICs were determined by broth microdilution assay as described above. […] Test tubes of MHB without test compound IS 111 were used as vehicle controls. Overnight cultures of the bacterial strains at cell densities of approximately 1×10^8 CFU/ml were used to inoculate both test and control tubes. The standard tube dilution method was opted to evaluate the time-kill efficacy of bacteria. Bacterial inoculum (1 mL) was diluted by adding 9 mL sterile saline solution and serially diluted up to 10^−3. […] 100 μL incubated suspension was transferred on the agar plates and spread through the spreader. Colony counts were performed after 24 h incubation at 37° C. Plates with 10-300 colonies were used for these counts, and the kill rate was determined by plotting log 10 viable counts (CFU/ml) against time. Bactericidal activity was defined as a ≥3 log 10 decreases in CFU/ml of the initial microbial population, while bacteriostatic activity was defined was defined as a <3 log 10 decrease in CFU/ml. The assay was performed in triplicate [Olufunmiso O Olajuyigbe et al., 2015; Sutthiwan Thammawat et al., 2017]
# The time-kill kinetics antibacterial study of the Peptide IS 111 was carried out to assess the killing rate of the compound within a given contact time. The survival of bacteria, time kill efficacy assay of IS 111 was further evaluated for activity against Escherichia coli ATCC 8739 and Staphylococcus aureus ATCC 6538, Pseudomonas aeruginosa ATCC 9027 and Klebsiella pneumoniae ATCC 700603 according to CLSI reference method, with slightly modification. MICs were determined by broth microdilution assay as described above. […] 10. Test tubes of MHB without test compound Peptide IS 111 were used as vehicle controls. Overnight cultures of the bacterial strains at cell densities of approximately 1×10^6 CFU/ml were used to inoculate both test and control tubes.
# After each interval, ten-fold dilutions were prepared with normal saline, and 100 μL incubated suspension was transferred on the agar plates and spread through the spreader. Colony counts were performed after 24 h incubation at 37° C. Plates with 10-300 colonies were used for these counts, and the kill rate was determined by plotting log 10 viable counts (CFU/ml) against time. Bactericidal activity was defined as a ≥3 log 10 decrease in CFU/ml of the initial microbial population, while bacteriostatic activity was defined as a <3 log 10 decrease in CFU/ml. The assay was performed in triplicate. The proportion of cells surviving at 60 min was calculated, as was the mean and standard deviation. Proportions of surviving cells were compared using Student's 2-tailed t-test, assuming unequal variance and differences were considered significant where p≤0.05.
substance,measurement,setting,value
"FAKKFAK [IS 111, Phe-Ala-Lys-Lys-Phe-Ala-Lys]",IL-10 levels (western blot),[1]; IS111 treated cells,increased
same,Phosphorylation of ERK (p-ERK1/2),"[1]; LPS-induced, western blot",significantly inhibited
same,LPS-induced increase of p38 phosphorylation,"[1]; concentration-dependent, western blot",markedly prevented
same,CCL2 mRNA expression,[2]; dose dependent,reduction
same,IL-1β mRNA expression,[2],dose dependently reduced
same,IL-6 mRNA expression,[2],significant reduction
same,TNF-α mRNA expression,[2],significant reduction
same,Viable count,"[3]; 0.5 × MIC, 0 h",4.8 ± 0.50 1 × 10^5 CFU/ml
same,Viable count,"[3]; 0.5 × MIC, 1 h",4.2 ± 0.35 1 × 10^5 CFU/ml
same,Viable count,"[3]; 0.5 × MIC, 2 h",3.4 ± 0.55 1 × 10^5 CFU/ml
same,Viable count,"[3]; 0.5 × MIC, 3 h",2.9 ± 0.45 1 × 10^5 CFU/ml
same,Viable count,"[3]; 0.5 × MIC, 4 h",2.1 ± 0.48 1 × 10^5 CFU/ml
same,Viable count,"[3]; 0.5 × MIC, 5 h",1.7 ± 0.30 1 × 10^5 CFU/ml
same,Viable count,"[3]; 0.5 × MIC, 12 h",1.5 ± 0.33 1 × 10^5 CFU/ml
same,Reduction in viability,"[3]; 0.5×MIC (3.13 μg/ml), 24 h",< 1 log 10 CFU/ml
same,Type of activity (bacteriostatic or bactericidal),"[3]; 0.5×MIC, 24 h",bacteriostatic
same,Viable count,"[3]; 0.5×MIC, 24 h",0.8 ± 0.13 1 × 10^5 CFU/ml
same,Viable count,"[3]; 1 × MIC, 0 h",5.1 ± 0.23 1 × 10^5 CFU/ml
same,Viable count,"[3]; 1 × MIC, 1 h",4.0 ± 0.18 1 × 10^5 CFU/ml
same,Viable count,"[3]; 1 × MIC, 2 h",1.9 ± 0.40 1 × 10^5 CFU/ml
same,Viable count,"[3]; 1 × MIC, 3 h",1.2 ± 0.15 1 × 10^5 CFU/ml
same,Viable count,"[3]; 1 × MIC, 4 h",0.6 ± 0.03 1 × 10^5 CFU/ml
same,Viable count,"[3]; 1 × MIC, 5 h",0.5 ± 0.05 1 × 10^5 CFU/ml
same,Viable count,"[3]; 1 × MIC, 12 h",0.2 ± 0.15 1 × 10^5 CFU/ml
same,Viable count,"[3]; 1 × MIC, 24 h",0 1 × 10^5 CFU/ml
same,Time to bacteriostatic activity,[3]; 1×MIC (6.25 μg/ml),≤ 24 h
same,Viable count,"[3]; 5 × MIC, 0 h",5.6 ± 0.18 1 × 10^5 CFU/ml
same,Viable count,"[3]; 5 × MIC, 1 h",1.8 ± 0.13 1 × 10^5 CFU/ml
same,Viable count,"[3]; 5 × MIC, 2 h",0.9 ± 0.08 1 × 10^5 CFU/ml
same,Viable count,"[3]; 5 × MIC, 3 h",0.6 ± 0.08 1 × 10^5 CFU/ml
same,Viable count,"[3]; 5 × MIC, 4 h",0.4 ± 0.05 1 × 10^5 CFU/ml
same,Viable count,"[3]; 5 × MIC, 5 h",0 1 × 10^5 CFU/ml
same,Viable count,"[3]; 5 × MIC, 12 h",0 1 × 10^5 CFU/ml
same,Viable count,"[3]; 5 × MIC, 24 h",0 1 × 10^5 CFU/ml
same,Time to bacteriostatic activity,[3]; 5×MIC (31.25 μg/ml),≤ 5 h
